Test results: ChEMBL document CHEMBL4819104, “Discovery of 2-amino-3-amido-5-aryl-pyridines as highly potent, orally bioavailable, and efficacious PERK kinase inhibitors” (Bioorg Med Chem Lett, 2021)
Converted amounts (≈) assume the structure as drawn.

Assays:
[1] = target: T1, Eukaryotic translation initiation factor 2-alpha kinase 3 (Homo sapiens, UniProt Q9NZJ5); assay: Inhibition of human His-tagged PERK expressed in Escherichia coli assessed as eIF2alpha phosphorylation by TR-FRET assay
T1 sequence (Q9NZJ5 whole entry): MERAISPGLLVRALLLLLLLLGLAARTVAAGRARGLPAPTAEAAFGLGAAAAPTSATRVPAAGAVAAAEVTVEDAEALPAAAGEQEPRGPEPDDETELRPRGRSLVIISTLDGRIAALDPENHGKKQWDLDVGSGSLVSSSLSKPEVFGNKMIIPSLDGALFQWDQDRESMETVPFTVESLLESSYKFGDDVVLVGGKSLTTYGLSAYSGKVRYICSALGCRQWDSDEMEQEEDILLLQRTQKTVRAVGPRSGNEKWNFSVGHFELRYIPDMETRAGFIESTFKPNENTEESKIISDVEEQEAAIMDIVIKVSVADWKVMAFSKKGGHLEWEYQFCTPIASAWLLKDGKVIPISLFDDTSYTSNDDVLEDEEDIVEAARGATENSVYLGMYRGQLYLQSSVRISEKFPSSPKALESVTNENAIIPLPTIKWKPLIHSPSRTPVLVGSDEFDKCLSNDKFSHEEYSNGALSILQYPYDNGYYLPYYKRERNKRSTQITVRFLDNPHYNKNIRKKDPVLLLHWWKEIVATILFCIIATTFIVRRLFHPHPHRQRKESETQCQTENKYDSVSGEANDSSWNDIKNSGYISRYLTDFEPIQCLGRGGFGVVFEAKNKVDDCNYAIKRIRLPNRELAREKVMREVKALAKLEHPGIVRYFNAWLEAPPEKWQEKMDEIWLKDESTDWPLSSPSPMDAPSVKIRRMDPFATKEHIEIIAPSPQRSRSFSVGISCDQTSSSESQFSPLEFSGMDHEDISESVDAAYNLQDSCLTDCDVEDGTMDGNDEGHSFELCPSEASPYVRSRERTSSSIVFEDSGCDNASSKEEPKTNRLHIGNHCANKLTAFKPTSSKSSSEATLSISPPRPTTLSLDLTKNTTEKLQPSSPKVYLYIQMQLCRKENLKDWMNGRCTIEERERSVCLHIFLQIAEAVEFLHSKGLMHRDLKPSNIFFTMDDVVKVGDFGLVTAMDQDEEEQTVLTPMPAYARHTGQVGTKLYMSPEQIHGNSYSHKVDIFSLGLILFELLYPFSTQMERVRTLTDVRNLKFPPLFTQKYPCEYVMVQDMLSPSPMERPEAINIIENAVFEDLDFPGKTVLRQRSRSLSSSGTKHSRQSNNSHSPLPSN

[2] = Aqueous solubility of the compound; type: physicochemical; conditions: buffer
[3] = Efflux ratio of apparent permeability in human Caco-2 cells; type: ADME, cell-based
[4] = Plasma protein binding in human; type: ADME, cell-free; conditions: read-out: PPB (converted)
[5] = Plasma protein binding in rat; type: ADME, cell-free; conditions: read-out: PPB (converted)
[6] = Plasma protein binding in mouse; type: ADME, cell-free; conditions: read-out: PPB (converted)
[7] = Plasma protein binding in dog; type: ADME, cell-free, Canis lupus familiaris; conditions: read-out: PPB (converted)
[8] = Half life in human hepatocytes; type: ADME, cell-based, Hepatocyte
[9] = Half life in rat hepatocytes; type: ADME, cell-based, Hepatocyte
[10] = Half life in mouse hepatocytes; type: ADME, cell-based, Hepatocyte
[11] = Half life in dog hepatocytes; type: ADME, cell-based, Canis lupus familiaris, Hepatocyte
[12] = target: Tyrosine-protein kinase receptor UFO (Homo sapiens) (UniProt P30530); assay: Inhibition of wild-type human partial length AXL (R497 to Y821 residues) expressed in bacterial expression system assessed as residual activity at 10 uM by Kinomescan method relative to control
[13] = target: Macrophage colony-stimulating factor 1 receptor (Homo sapiens) (UniProt P07333); assay: Inhibition of wild-type human partial length CSF1R (I564 to S939 residues) expressed in bacterial expression system assessed as residual activity at 10 uM by Kinomescan method relative to control
[14] = target: Epithelial discoidin domain-containing receptor 1 (Homo sapiens) (UniProt Q08345); assay: Inhibition of wild-type human partial length DDR1 (R565 to V876 residues) expressed in bacterial expression system assessed as residual activity at 10 uM by Kinomescan method relative to control
[15] = target: Mast/stem cell growth factor receptor Kit (Homo sapiens) (UniProt P10721); assay: Inhibition of wild-type human partial length KIT (I571 to D952 residues) expressed in bacterial expression system assessed as residual activity at 10 uM by Kinomescan method relative to control
[16] = target: T2, Mitogen-activated protein kinase 12 (Homo sapiens) (UniProt P53778); assay: Inhibition of wild-type human full length p38-gamma (M1 to L367 residues) expressed in mammalian expression system assessed as residual activity at 10 uM by Kinomescan method relative to control
T2 sequence (whole entry): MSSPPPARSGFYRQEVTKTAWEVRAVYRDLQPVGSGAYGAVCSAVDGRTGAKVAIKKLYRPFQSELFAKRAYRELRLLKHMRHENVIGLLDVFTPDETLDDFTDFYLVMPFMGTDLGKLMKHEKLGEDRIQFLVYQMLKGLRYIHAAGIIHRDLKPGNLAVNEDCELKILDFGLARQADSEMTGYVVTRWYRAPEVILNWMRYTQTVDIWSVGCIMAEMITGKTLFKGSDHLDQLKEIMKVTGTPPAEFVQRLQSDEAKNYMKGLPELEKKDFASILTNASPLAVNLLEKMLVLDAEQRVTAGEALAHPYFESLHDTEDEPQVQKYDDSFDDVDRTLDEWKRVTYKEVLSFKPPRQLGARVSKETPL

[17] = target: Platelet-derived growth factor receptor beta (Homo sapiens) (UniProt P09619); assay: Inhibition of wild-type human partial length PDGFRbeta (V582 to Y1009 residues) expressed in bacterial expression system assessed as residual activity at 10 uM by Kinomescan method relative to control
[18] = target: Proto-oncogene tyrosine-protein kinase Src (Homo sapiens) (UniProt P12931); assay: Inhibition of wild-type human partial length SRC (L240 to L536 residues) expressed in bacterial expression system assessed as residual activity at 10 uM by Kinomescan method relative to control
[19] = target: Angiopoietin-1 receptor (Homo sapiens) (UniProt Q02763); assay: Inhibition of wild-type human partial length TIE2 (N804 to T1112 residues) expressed in bacterial expression system assessed as residual activity at 10 uM by Kinomescan method relative to control
[20] = target: BDNF/NT-3 growth factors receptor (Homo sapiens) (UniProt Q16620); assay: Inhibition of wild-type human partial length TRKB (Q547 to G838 residues) expressed in mammalian expression system assessed as residual activity at 10 uM by Kinomescan method relative to control
[21] = Cmax in mouse at 10 mg/kg, po; type: ADME, organism-based; set-up: route oral, dose 10 mg/kg; conditions: in vivo
[22] = AUC (0 to last) in mouse at 10 mg/kg, po; type: ADME, organism-based; set-up: time 0 - last, route oral, dose 10 mg/kg; conditions: in vivo
[23] = Half life in mouse at 10 mg/kg, po; type: ADME, organism-based; conditions: in vivo
[24] = Oral bioavailability in mouse at 10 mg/kg; type: ADME, organism-based; conditions: in vivo
786-0 = assay: Anticancer activity against human 786-0 cells xenografted in clear cell renal cell carcinoma mouse model assessed as tumor growth inhibition at 10 mg/kg measured at day 28 relative to control; type: functional; conditions: 786-0, 672 h, read-out: TGI

Macrophage colony-stimulating factor 1 receptor (Homo sapiens), sequence (P07333 whole entry, the tested form may be a part): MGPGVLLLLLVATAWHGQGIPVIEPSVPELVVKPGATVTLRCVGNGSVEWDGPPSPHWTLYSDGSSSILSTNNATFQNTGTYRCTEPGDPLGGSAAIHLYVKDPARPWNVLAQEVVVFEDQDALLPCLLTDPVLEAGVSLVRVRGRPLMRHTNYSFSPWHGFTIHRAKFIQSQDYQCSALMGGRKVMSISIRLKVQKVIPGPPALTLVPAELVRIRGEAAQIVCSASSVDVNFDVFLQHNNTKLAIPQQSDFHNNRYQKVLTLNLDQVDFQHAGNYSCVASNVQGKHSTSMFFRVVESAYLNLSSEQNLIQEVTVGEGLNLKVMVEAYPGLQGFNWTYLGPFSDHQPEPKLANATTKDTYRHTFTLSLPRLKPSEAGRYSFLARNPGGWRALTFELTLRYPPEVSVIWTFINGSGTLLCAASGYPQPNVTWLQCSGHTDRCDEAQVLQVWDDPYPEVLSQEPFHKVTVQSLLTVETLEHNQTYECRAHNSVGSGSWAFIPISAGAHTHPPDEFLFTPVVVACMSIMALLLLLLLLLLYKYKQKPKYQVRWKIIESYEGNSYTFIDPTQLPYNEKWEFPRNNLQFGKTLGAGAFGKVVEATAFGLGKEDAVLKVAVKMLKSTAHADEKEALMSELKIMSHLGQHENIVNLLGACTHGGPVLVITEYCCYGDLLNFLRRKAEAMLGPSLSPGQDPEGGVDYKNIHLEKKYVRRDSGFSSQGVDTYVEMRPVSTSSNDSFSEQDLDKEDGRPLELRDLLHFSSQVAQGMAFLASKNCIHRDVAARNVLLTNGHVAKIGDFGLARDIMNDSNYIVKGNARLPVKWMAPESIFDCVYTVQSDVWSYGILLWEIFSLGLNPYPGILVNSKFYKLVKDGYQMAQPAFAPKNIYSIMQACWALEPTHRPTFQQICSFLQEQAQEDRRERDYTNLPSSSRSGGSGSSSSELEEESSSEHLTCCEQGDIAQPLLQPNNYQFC
Angiopoietin-1 receptor (Homo sapiens), sequence (Q02763 whole entry, the tested form may be a part): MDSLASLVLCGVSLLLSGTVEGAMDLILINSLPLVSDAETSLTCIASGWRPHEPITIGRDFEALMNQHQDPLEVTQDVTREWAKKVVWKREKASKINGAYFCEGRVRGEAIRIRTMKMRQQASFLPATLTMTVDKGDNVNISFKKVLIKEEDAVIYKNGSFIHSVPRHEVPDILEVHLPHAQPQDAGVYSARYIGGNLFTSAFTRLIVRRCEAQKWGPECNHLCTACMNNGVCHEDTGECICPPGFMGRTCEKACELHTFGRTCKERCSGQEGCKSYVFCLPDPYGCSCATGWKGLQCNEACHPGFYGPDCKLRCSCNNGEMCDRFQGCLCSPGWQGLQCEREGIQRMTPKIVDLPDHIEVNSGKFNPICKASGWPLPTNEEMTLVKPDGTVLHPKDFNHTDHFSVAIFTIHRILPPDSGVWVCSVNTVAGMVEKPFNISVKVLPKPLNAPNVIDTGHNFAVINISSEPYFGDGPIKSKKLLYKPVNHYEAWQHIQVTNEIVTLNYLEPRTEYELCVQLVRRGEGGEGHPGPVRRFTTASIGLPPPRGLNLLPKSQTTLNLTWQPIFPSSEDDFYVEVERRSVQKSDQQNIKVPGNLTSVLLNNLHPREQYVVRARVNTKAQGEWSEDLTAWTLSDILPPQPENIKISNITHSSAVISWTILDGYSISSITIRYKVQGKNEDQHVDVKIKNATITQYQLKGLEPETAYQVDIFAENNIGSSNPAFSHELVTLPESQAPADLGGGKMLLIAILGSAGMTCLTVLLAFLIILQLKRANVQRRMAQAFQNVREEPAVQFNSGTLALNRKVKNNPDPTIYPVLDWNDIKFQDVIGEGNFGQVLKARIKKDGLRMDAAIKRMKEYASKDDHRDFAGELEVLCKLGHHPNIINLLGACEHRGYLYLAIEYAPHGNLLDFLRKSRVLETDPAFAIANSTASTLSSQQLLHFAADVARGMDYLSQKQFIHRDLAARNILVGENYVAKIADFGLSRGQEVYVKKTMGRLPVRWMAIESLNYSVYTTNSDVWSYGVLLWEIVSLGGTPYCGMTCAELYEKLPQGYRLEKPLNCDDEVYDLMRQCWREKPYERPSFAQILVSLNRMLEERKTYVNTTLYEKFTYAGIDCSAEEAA
Platelet-derived growth factor receptor beta (Homo sapiens), sequence (P09619 whole entry, the tested form may be a part): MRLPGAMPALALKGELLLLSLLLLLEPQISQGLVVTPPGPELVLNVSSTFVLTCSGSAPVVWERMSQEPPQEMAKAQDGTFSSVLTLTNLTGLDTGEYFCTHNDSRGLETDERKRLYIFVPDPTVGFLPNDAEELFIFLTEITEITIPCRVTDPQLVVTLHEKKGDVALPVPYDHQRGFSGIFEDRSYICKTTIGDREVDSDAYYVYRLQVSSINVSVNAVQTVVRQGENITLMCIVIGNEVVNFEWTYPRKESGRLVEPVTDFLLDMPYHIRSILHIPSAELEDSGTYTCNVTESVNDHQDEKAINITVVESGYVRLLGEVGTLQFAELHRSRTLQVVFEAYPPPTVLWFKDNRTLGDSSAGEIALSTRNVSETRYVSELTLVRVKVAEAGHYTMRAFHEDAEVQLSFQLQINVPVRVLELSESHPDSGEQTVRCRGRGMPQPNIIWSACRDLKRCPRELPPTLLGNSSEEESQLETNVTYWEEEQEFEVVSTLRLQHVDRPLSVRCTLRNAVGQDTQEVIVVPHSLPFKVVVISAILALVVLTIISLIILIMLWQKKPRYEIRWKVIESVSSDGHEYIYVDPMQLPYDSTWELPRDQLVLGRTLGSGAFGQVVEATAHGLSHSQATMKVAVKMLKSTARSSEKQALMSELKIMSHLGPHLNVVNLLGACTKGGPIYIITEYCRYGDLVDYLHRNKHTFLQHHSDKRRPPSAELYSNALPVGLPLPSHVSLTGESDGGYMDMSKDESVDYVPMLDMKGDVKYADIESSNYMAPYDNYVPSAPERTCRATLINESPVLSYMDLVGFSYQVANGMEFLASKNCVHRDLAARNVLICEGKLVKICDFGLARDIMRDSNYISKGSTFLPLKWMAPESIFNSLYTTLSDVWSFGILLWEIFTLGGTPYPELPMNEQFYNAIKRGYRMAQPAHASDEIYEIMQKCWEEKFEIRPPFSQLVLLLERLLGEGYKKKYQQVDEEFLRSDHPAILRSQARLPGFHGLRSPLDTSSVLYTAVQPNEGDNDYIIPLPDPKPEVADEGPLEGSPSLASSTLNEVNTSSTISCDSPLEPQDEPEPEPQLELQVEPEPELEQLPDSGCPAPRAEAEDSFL
Tyrosine-protein kinase receptor UFO (Homo sapiens), sequence (P30530 whole entry, the tested form may be a part): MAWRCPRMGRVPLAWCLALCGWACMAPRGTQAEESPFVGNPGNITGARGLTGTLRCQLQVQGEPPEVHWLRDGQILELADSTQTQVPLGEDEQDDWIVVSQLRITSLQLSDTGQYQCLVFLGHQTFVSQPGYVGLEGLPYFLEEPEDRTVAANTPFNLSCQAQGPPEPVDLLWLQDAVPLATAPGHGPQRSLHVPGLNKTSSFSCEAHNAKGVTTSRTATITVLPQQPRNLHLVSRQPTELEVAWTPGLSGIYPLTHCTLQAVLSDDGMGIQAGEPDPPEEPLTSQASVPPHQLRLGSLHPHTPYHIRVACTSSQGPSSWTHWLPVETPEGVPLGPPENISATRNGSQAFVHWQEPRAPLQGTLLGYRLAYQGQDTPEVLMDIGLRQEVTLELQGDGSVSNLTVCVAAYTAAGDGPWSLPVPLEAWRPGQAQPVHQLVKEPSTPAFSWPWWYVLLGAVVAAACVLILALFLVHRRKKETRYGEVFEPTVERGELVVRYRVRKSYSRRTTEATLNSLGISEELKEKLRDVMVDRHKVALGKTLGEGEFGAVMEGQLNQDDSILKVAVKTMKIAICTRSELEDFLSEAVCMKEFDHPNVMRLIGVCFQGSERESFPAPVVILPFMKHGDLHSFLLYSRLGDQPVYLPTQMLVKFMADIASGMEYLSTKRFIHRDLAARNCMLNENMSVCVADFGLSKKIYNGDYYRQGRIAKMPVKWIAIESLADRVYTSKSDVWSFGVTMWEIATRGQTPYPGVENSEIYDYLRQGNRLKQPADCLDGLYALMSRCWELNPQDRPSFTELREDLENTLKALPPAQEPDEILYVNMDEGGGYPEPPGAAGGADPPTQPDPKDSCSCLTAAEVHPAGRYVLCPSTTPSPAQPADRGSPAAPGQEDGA
Epithelial discoidin domain-containing receptor 1 (Homo sapiens), sequence (Q08345 whole entry, the tested form may be a part): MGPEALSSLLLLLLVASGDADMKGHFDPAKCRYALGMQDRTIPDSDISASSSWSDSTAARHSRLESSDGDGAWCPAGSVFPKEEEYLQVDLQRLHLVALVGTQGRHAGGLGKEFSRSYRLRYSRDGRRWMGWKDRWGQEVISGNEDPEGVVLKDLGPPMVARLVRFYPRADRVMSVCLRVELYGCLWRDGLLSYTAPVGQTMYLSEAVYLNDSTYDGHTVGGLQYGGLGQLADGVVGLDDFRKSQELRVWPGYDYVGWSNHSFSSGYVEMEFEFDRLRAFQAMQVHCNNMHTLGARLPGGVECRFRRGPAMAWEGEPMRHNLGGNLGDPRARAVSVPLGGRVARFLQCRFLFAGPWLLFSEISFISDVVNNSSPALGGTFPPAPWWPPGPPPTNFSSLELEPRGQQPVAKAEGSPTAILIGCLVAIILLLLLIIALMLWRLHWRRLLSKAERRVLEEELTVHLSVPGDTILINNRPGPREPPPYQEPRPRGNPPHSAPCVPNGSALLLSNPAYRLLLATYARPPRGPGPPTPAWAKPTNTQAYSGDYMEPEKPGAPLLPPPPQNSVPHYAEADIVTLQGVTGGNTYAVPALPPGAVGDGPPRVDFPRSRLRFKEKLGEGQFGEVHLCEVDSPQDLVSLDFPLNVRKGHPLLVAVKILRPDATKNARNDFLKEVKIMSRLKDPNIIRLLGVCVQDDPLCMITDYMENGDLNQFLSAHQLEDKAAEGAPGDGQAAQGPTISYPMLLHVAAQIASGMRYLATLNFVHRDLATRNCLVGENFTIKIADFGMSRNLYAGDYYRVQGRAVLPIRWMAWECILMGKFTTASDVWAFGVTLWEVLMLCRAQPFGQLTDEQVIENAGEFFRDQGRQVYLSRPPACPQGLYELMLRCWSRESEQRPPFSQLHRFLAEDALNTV

## CCc1cc(NC(=O)[C@H](O)c2cc(F)cc(F)c2)ccc1-c1cnc(N)c(C(=O)NC(C)C)c1
[1]
  IC50: 2 nM
[2]
  solubility: 10 µM (≈ 4.69 µg/mL)
[3]
  efflux ratio: 2.3
[4]
  fraction unbound: 0.003
[5]
  fraction unbound: 0.007
[6]
  fraction unbound: 0.006
[7]
  fraction unbound: 0.002
[8]
  half-life: 5.17 h
[9]
  half-life: 0.233 h
[10]
  half-life: 1.05 h
[11]
  half-life: 8.22 h
[12]
  Activity: 70%
[13]
  Activity: 74%
[14]
  Activity: 100%
[15]
  Activity: 67%
[16]
  Activity: 87%
[17]
  Activity: 60%
[18]
  Activity: 97%
[19]
  Activity: 85%
[20]
  Activity: 100%
[21]
  Cmax: 3350 ng/mL
[22]
  AUC(0-t): 5150 ng·h/mL
[23]
  half-life: 2 h
[24]
  bioavailability: 70%
786-0
  inhibition in vivo at 10 mg/kg: 40%
